Where two headings read alike, the source gives them in different places. Marks after values point to notes of the source that are not given here.
Experiments:
P. aeruginosa ATCC 27853 [1] = experiment: MIC by serial dilutions in broth (visible growth)
Protocol: (§3) The minimum inhibitory concentration (MIC) and minimum bactericidal concentration (MBC) of the antibacterial composition enriched for the light isotope zinc ^64Zne was evaluated in the experiment. […] S. aureus ATCC 25923, E. coli ATCC 25922 and P. aeruginosa ATCC 27853 were used as test cultures.
(§4) The studies were carried out using the method of serial dilutions in broth. To determine sensitivity of microorganisms to the antibacterial composition, 0.5 ml of broth was placed into each tube. The number of tubes was determined based on the desired number of dilutions and was increased by one for the “negative” control (no test composition). Series of two-fold serial dilutions of the test variants of the antibacterial composition were used and concentrations ranging from 450 mcg ^64Zne/ml to 0.000107 mcg ^64Zne/ml were obtained.
(§5) Reference test strains of S. aureus ATCC 25923, E. coli ATCC 25922 and P. aeruginosa ATCC 27853 were incubated in Mueller-Hinton liquid broth at 37° C. for 24 hours. Standard bacterial suspension equivalent to 0.5 McFarland standard diluted 100-fold with the broth was used for the inoculation of the tubes after which the concentration of microorganism in it was approximately 10^6 CFU/ml.
(§6) 0.5 ml of inoculum was added to each tube containing 0.5 ml of the appropriate dilution of a solution of the ^64Zn-enriched salt of interest. […] The final concentration of the microorganism in each tube was approximately 5×10^5 CFU/ml.
(§7) The tubes were incubated at 35° C. in air for 16-20 or 20-24 hours (depending on the bacterial strain).
(§8) To determine the presence of microorganism growth the test tubes with inoculum were viewed under transmitted light. Transmitted light was measured by spectrophotometry. The growth of culture in the presence of antibacterial compositions based on ^64Zne was compared with the reference test tube (“negative” control), containing the original inoculum and stored in the refrigerator. The MIC was determined as the lowest concentration of ^64Zne that inhibits visible growth of the microorganism. Both gram-positive (S. aureus) and gram-negative bacteria (P. aeruginosa, E. coli) were used in the experiments described below.
(§9) That is, ^64Zne in the form of a salt was compared with a composition that contains zinc with a natural distribution of isotopes. […] Relevant samples containing salt of natural zinc with EDDA and natural zinc sulfate were used for the comparison.
(§10) The following commercial antibacterial medications were used for the study: azithromycin and ceftriaxone and norfloxacin. The initial concentration of 3000 mcg/ml was used for the samples of all the above compounds. […] Serial dilutions of the above antibacterial compounds were also prepared in the same way as for the antibacterial composition of the invention. The same pathogenic strains of S. aureus ATCC 25923, E. coli ATCC 25922, P. aeruginosa ATCC 27853 were used for the study.

S. aureus ATCC 25923 [2] = experiment: MIC by serial dilutions in broth (visible growth); assay type: cell-based;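 further: broth tubes inoculated at about 5×10^5 CFU/ml, incubated 16-24 h at 35 °C in air, growth judged by transmitted light against an unexposed refrigerated inoculum tube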
Protocol: as §3, §4, §5, §6, §7, §8, §9, §10

P. aeruginosa ATCC 27853 [3] = experiment: MBC by plating tube contents on Mueller-Hinton medium; assay type: cell-based
Protocol: (§1) To evaluate the bactericidal action of the antibacterial composition based on light isotope ^64Zne the minimum bactericidal concentration (MBC) was determined by plating out 0.1 ml of the contents of each tube containing the antibacterial composition on Mueller-Hinton medium. The incubation was at 37° C. for 24 h.
(§2) The MBC of the test samples was determined as the lowest concentration at which there was no growth on Mueller-Hinton agar medium.

S. aureus ATCC 25923 [4] = experiment: as above; assay type: cell-based
Protocol: as §1, §2

E. coli ATCC 25922 [5] = experiment: as above; assay type: cell-based
Protocol: as §1, §2

E. coli ATCC 25922 [6] = experiment: MIC by serial dilutions in broth (visible growth); assay type: cell-based;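 further: broth tubes inoculated to about 5×10^5 CFU/ml, incubated at 35 °C for 16-24 h, growth judged by transmitted light versus an untreated inoculum reference tube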
Protocol: as §3, §4, §5, §6, §7, §8, §9, §10

[7] = concentration of ^64Zne, Tables 1-5
[8] = Table 7, ^64Zne vs natural zinc
[9] = Table 8, ^64Zne vs natural zinc

O=C([O-])CC(O)(CC(=O)[O-])C(=O)[O-].O=C([O-])CC(O)(CC(=O)[O-])C(=O)[O-].[Zn+2].[Zn+2].[Zn+2] [^64Zne citrate]
MIC (P. aeruginosa ATCC 27853 [1]; [7]): 14.062 µg/mL
visible growth (S. aureus ATCC 25923 [2]; ^64Zne 0.00011 mcg/ml): +
visible growth (S. aureus ATCC 25923 [2]; ^64Zne 0.00022 mcg/ml): +
visible growth (S. aureus ATCC 25923 [2]; ^64Zne 0.00043 mcg/ml): +
visible growth (S. aureus ATCC 25923 [2]; ^64Zne 0.00086 mcg/ml): +
visible growth (S. aureus ATCC 25923 [2]; ^64Zne 0.0017 mcg/ml): +
visible growth (S. aureus ATCC 25923 [2]; ^64Zne 0.0034 mcg/ml): +
visible growth (S. aureus ATCC 25923 [2]; ^64Zne 0.0069 mcg/ml): +
visible growth (S. aureus ATCC 25923 [2]; ^64Zne 0.014 mcg/ml): +
visible growth (S. aureus ATCC 25923 [2]; ^64Zne 0.027 mcg/ml): −
visible growth (S. aureus ATCC 25923 [2]; ^64Zne 0.055 mcg/ml): −
visible growth (S. aureus ATCC 25923 [2]; ^64Zne 0.11 mcg/ml): −
visible growth (S. aureus ATCC 25923 [2]; ^64Zne 0.22 mcg/ml): −
visible growth (S. aureus ATCC 25923 [2]; ^64Zne 0.44 mcg/ml): −
visible growth (S. aureus ATCC 25923 [2]; ^64Zne 0.88 mcg/ml): −
visible growth (S. aureus ATCC 25923 [2]; ^64Zne 1.76 mcg/ml): −
visible growth (S. aureus ATCC 25923 [2]; ^64Zne 3.52 mcg/ml): −
visible growth (S. aureus ATCC 25923 [2]; ^64Zne 7.03 mcg/ml): −
visible growth (S. aureus ATCC 25923 [2]; ^64Zne 14.06 mcg/ml): −
visible growth (S. aureus ATCC 25923 [2]; ^64Zne 28.13 mcg/ml): −
visible growth (S. aureus ATCC 25923 [2]; ^64Zne 56.25 mcg/ml): −
visible growth (S. aureus ATCC 25923 [2]; ^64Zne 112.5 mcg/ml): −
visible growth (S. aureus ATCC 25923 [2]; ^64Zne 225 mcg/ml): −
MIC (S. aureus ATCC 25923 [2]; [7]): 0.0275 µg/mL
bactericidal activity (in words) (P. aeruginosa ATCC 27853 [3]): satisfactory bactericidal activity
MBC (P. aeruginosa ATCC 27853 [3]; Table 6): 112.5 mcg ^64Zne/ml
MBC (S. aureus ATCC 25923 [4]; Table 6): 0.028* mcg ^64Zne/ml
MBC (E. coli ATCC 25922 [5]; Table 6): 0.44* mcg ^64Zne/ml
visible growth (E. coli ATCC 25922 [6]; ^64Zne 0.00011 mcg/ml): +
visible growth (E. coli ATCC 25922 [6]; ^64Zne 0.00022 mcg/ml): +
visible growth (E. coli ATCC 25922 [6]; ^64Zne 0.00043 mcg/ml): +
visible growth (E. coli ATCC 25922 [6]; ^64Zne 0.00086 mcg/ml): +
visible growth (E. coli ATCC 25922 [6]; ^64Zne 0.0017 mcg/ml): +
visible growth (E. coli ATCC 25922 [6]; ^64Zne 0.0034 mcg/ml): +
visible growth (E. coli ATCC 25922 [6]; ^64Zne 0.0069 mcg/ml): +
visible growth (E. coli ATCC 25922 [6]; ^64Zne 0.014 mcg/ml): +
visible growth (E. coli ATCC 25922 [6]; ^64Zne 0.027 mcg/ml): −
visible growth (E. coli ATCC 25922 [6]; ^64Zne 0.055 mcg/ml): −
visible growth (E. coli ATCC 25922 [6]; ^64Zne 0.11 mcg/ml): −
visible growth (E. coli ATCC 25922 [6]; ^64Zne 0.22 mcg/ml): −
visible growth (E. coli ATCC 25922 [6]; ^64Zne 0.44 mcg/ml): −
visible growth (E. coli ATCC 25922 [6]; ^64Zne 0.88 mcg/ml): −
visible growth (E. coli ATCC 25922 [6]; ^64Zne 1.76 mcg/ml): −
visible growth (E. coli ATCC 25922 [6]; ^64Zne 3.52 mcg/ml): −
visible growth (E. coli ATCC 25922 [6]; ^64Zne 7.03 mcg/ml): −
visible growth (E. coli ATCC 25922 [6]; ^64Zne 14.06 mcg/ml): −
visible growth (E. coli ATCC 25922 [6]; ^64Zne 28.13 mcg/ml): −
visible growth (E. coli ATCC 25922 [6]; ^64Zne 56.25 mcg/ml): −
visible growth (E. coli ATCC 25922 [6]; ^64Zne 112.5 mcg/ml): −
visible growth (E. coli ATCC 25922 [6]; ^64Zne 225 mcg/ml): −
visible growth (E. coli ATCC 25922 [6]; ^64Zne 450 mcg/ml): −
MIC (E. coli ATCC 25922 [6]; [7]): 0.0275 µg/mL

O=S(=O)([O-])[O-].[64Zn+2] [^64Zne sulfate]
MIC (P. aeruginosa ATCC 27853 [1]; [8]): 46.875 zinc/ml
MIC (P. aeruginosa ATCC 27853 [1]; [7]): 46.875 µg/mL
visible growth (S. aureus ATCC 25923 [2]): − and +
MIC (S. aureus ATCC 25923 [2]; [8]): 0.366 zinc/ml
visible growth (S. aureus ATCC 25923 [2]; ^64Zne 0.00036 mcg/ml): +
visible growth (S. aureus ATCC 25923 [2]; ^64Zne 0.00072 mcg/ml): +
visible growth (S. aureus ATCC 25923 [2]; ^64Zne 0.0014 mcg/ml): +
visible growth (S. aureus ATCC 25923 [2]; ^64Zne 0.0029 mcg/ml): +
visible growth (S. aureus ATCC 25923 [2]; ^64Zne 0.011 mcg/ml): +
visible growth (S. aureus ATCC 25923 [2]; ^64Zne 0.023 mcg/ml): +
visible growth (S. aureus ATCC 25923 [2]; ^64Zne 0.046 mcg/ml): +
visible growth (S. aureus ATCC 25923 [2]; ^64Zne 0.37 mcg/ml): −
visible growth (S. aureus ATCC 25923 [2]; ^64Zne 1.46 mcg/ml): −
visible growth (S. aureus ATCC 25923 [2]; ^64Zne 2.93 mcg/ml): −
visible growth (S. aureus ATCC 25923 [2]; ^64Zne 5.86 mcg/ml): −
visible growth (S. aureus ATCC 25923 [2]; ^64Zne 11.72 mcg/ml): −
visible growth (S. aureus ATCC 25923 [2]; ^64Zne 23.44 mcg/ml): −
visible growth (S. aureus ATCC 25923 [2]; ^64Zne 46.88 mcg/ml): −
visible growth (S. aureus ATCC 25923 [2]; ^64Zne 93.75 mcg/ml): −
visible growth (S. aureus ATCC 25923 [2]; ^64Zne 187.5 mcg/ml): −
visible growth (S. aureus ATCC 25923 [2]; ^64Zne 375 mcg/ml): −
visible growth (S. aureus ATCC 25923 [2]; ^64Zne 750 mcg/ml): −
MIC (S. aureus ATCC 25923 [2]; [7]): 0.366 µg/mL
bactericidal activity (in words) (P. aeruginosa ATCC 27853 [3]): satisfactory bactericidal activity
MBC (P. aeruginosa ATCC 27853 [3]; Table 6): 375 mcg ^64Zne/ml
MBC (P. aeruginosa ATCC 27853 [3]; [9]): 375 mcg zinc/ml
MBC (S. aureus ATCC 25923 [4]; Table 6): 0.37* mcg ^64Zne/ml
MBC (S. aureus ATCC 25923 [4]; [9]): 0.3662 mcg zinc/ml
MBC (E. coli ATCC 25922 [5]; Table 6): 1.46* mcg ^64Zne/ml
MBC (E. coli ATCC 25922 [5]; [9]): 1.4648 mcg zinc/ml
visible growth (E. coli ATCC 25922 [6]): − and +
MIC (E. coli ATCC 25922 [6]; [8]): 0.0916 zinc/ml
visible growth (E. coli ATCC 25922 [6]; ^64Zne 0.00036 mcg/ml): +
visible growth (E. coli ATCC 25922 [6]; ^64Zne 0.00072 mcg/ml): +
visible growth (E. coli ATCC 25922 [6]; ^64Zne 0.0014 mcg/ml): +
visible growth (E. coli ATCC 25922 [6]; ^64Zne 0.0029 mcg/ml): +
visible growth (E. coli ATCC 25922 [6]; ^64Zne 0.011 mcg/ml): +
visible growth (E. coli ATCC 25922 [6]; ^64Zne 0.023 mcg/ml): +
visible growth (E. coli ATCC 25922 [6]; ^64Zne 0.046 mcg/ml): +
visible growth (E. coli ATCC 25922 [6]; ^64Zne 0.092 mcg/ml): −
visible growth (E. coli ATCC 25922 [6]; ^64Zne 0.37 mcg/ml): −
visible growth (E. coli ATCC 25922 [6]; ^64Zne 0.73 mcg/ml): −
visible growth (E. coli ATCC 25922 [6]; ^64Zne 1.46 mcg/ml): −
visible growth (E. coli ATCC 25922 [6]; ^64Zne 2.93 mcg/ml): −
visible growth (E. coli ATCC 25922 [6]; ^64Zne 5.86 mcg/ml): −
visible growth (E. coli ATCC 25922 [6]; ^64Zne 11.72 mcg/ml): −
visible growth (E. coli ATCC 25922 [6]; ^64Zne 23.44 mcg/ml): −
visible growth (E. coli ATCC 25922 [6]; ^64Zne 46.88 mcg/ml): −
visible growth (E. coli ATCC 25922 [6]; ^64Zne 93.75 mcg/ml): −
visible growth (E. coli ATCC 25922 [6]; ^64Zne 187.5 mcg/ml): −
visible growth (E. coli ATCC 25922 [6]; ^64Zne 375 mcg/ml): −
visible growth (E. coli ATCC 25922 [6]; ^64Zne 750 mcg/ml): −
visible growth (E. coli ATCC 25922 [6]; ^64Zne 1500 mcg/ml): −
MIC (E. coli ATCC 25922 [6]; [7]): 0.0916 µg/mL

NC(CC(=O)[O-])C(=O)[O-].[64Zn+2] (racemic) [^64Zne aspartate]
MBC (P. aeruginosa ATCC 27853 [3]; Table 6): >750 mcg ^64Zne/ml
MBC (S. aureus ATCC 25923 [4]; Table 6): 0.023* mcg ^64Zne/ml
MBC (E. coli ATCC 25922 [5]; Table 6): 0.73* mcg ^64Zne/ml
